For data set [1] the following is noted: eight CRRT supported critically ill patients; cited from earlier work.
For data set [2] the following is noted: critically ill adult patients; for Residual variability (σ) stdev, Final Model Estimate, Mean: log-additive error.
The conditions of data set [3]: cited from earlier work.
For another data set, the system named is SARS-CoV-2. Conditions: free exposure, cited from earlier work.
A further data set in a line: clinical. Conditions: human, in vivo, 300 mg.
The conditions of data set [4]: Chinese patients aged 60 and above; typical patient; cited from earlier work.
The conditions of data set [5]: limit for steady-state Cpeak; cited from earlier work.
The conditions of data set [6]: mild to moderate hepatic impairment; cited from earlier work.
The conditions of data set [7]: cited from earlier work. The source holds these as a separate data set.
For data set [8] the following is noted: cited from earlier work. The source holds these as a separate data set.
[9] abbreviates: healthy young adults, NIR/RIT 2250mg/100mg once.

“And” between values parts separate entries of the source, which are not always exact repeats. Equal values may be shown once. Read-outs that look alike come from different tables or passages of the source.

What is called EC90 is the concentration at which the effect reaches the 90% level. A word on the AUC: it is concentration integrated over time. By CL/F is commonly meant the apparent clearance, not corrected for the fraction that reaches the circulation. As for `CC(C)(C)[C@H](NC(=O)C(F)(F)F)C(=O)N1C[C@H]2[C@@H]([C@H]1C(=O)N[C@H](C#N)C[C@@H]1CCNC1=O)C2(C)C` [NIR, Nirmatrelvir], the valley concentrations in [1] was 3325.34 to 15625.46 ng/mL. Moreover, in data set [2], the “absorption rate constant (Ka), mean (SD)” value was 0.42 (0.10) h^−1 and 0.42 h^−1; the “apparent clearance (CL/F), mean (SD)” value was 3.6 (0.26) L/h and 3.6 L/h. For the same compound, in [2] (bootstrap), the “Residual variability (σ) stdev, Bootstrap Estimate, Median” value was 0.26; the “dCLdAUCRIT, Bootstrap Estimate, Median” value is given as −0.44; the “dCLdCrCL, Bootstrap Estimate, Median” value is recorded as 0.58; the “ω^2V (inter-individual variability), Bootstrap Estimate, Median” value was 0.60. Also, in data set [2] (bootstrap 1000 samples), the “tvCL, Bootstrap of Final Model Estimate, Median” value is on record as 3.2 L/h and the “tvKa, Bootstrap of Final Model Estimate, Median” value was 0.61 h⁻¹. In addition, the “Residual variability (σ) stdev, Final Model Estimate, Mean” value in [2] (final model) is listed as 0.26. For the same compound, in data set [2] (one-compartment final model), the “tvCL, Final Model Estimate, Mean” value is 3.6 L/h and the “tvKa, Final Model Estimate, Mean” value was 0.42 h⁻¹. Further, the “CL/F lower than normal renal function group” value in data set [3] (moderate renal impairment group) is listed as 47%. Also, the “CL/F lower than normal renal function group” value in data set [3] (severe renal impairment group) was 80%. Besides, the “in vitro EC90 (free)” value in the data set with SARS-CoV-2 is 0.0905 µg/mL. In addition, the EC90 with SARS-CoV-2 (read-out: in vitro EC90 (free)) is 181 nM. The same compound gave an AUC in the data set “clinical” of 107 µg·h/mL. For the same compound, in [4], the CL/F was 4.16 L/h, the Ka was 0.776 h⁻¹ and the V/F is 39.1 L. For the same compound, the “human no observed adverse effect levels (NOAELs)” value in data set [5] is on record as 79,700 ng/mL. Besides, the “median plasma concentration and AUC in hepatic impairment” value in data set [6] is “comparable to those with normal hepatic function”. For the same compound, the protein binding result in data set [7] is listed as “approximately 70%”. For the same compound, in data set [8] (healthy adults aged 18–60), the apparent clearance (CL/F) is recorded as 8.2 L/h, the Ka is 1.11 h⁻¹ and the V/F is 111 L. In [8] (setting [9]), the exposure (AUC) was 188.2 µg·h/mL, the CL/F is recorded as 3.97 L/h and the V/F is 40.06 L.

With `CC(C)c1nc(CN(C)C(=O)N[C@H](C(=O)N[C@@H](Cc2ccccc2)C[C@H](O)[C@H](Cc2ccccc2)NC(=O)OCc2cncs2)C(C)C)cs1` [RIT, Ritonavir], in data set [2] (bootstrap), the “Residual variability (σ) stdev, Bootstrap Estimate, Median” value is reported as 0.34; the “ω^2CL (inter-individual variability), Bootstrap Estimate, Median” value is 0.53; the “ω^2V (inter-individual variability), Bootstrap Estimate, Median” value is listed as 1.64. Moreover, in data set [2] (bootstrap 1000 samples), the “tvCL, Bootstrap of Final Model Estimate, Median” value is 10.3 L/h; the “tvKa, Bootstrap of Final Model Estimate, Median” value is 1.10 h⁻¹; the “tvV, Bootstrap of Final Model Estimate, Median” value was 82.4 L. In addition, in data set [2] (final model), the “ω^2CL (inter-individual variability), Final Model Estimate, Mean” value is 0.57; the “ω^2V (inter-individual variability), Final Model Estimate, Mean” value is on record as 1.27; the “Residual variability (σ) stdev, Final Model Estimate, Mean” value is 0.34. In data set [2] (one-compartment final model), the “tvCL, Final Model Estimate, Mean” value is on record as 10.3 L/h; the “tvKa, Final Model Estimate, Mean” value was 0.64 h⁻¹; the “tvV, Final Model Estimate, Mean” value was 84.9 L.

Values taken from paper PMC11416114 (Infection and Drug Resistance, 2024).
